Drawing on patent US9399647B2, “Proteasome activity modulating compounds” (Proteostasis Therapeutics, Inc., priority 2012, dated 2016), this text covers IC50 for 36 molecules.

The target in this assay is USP14 (Homo sapiens, UniProt P54578). Description: USP14 inhibition assay. The class given is biochemical. From the text: The IC50 values in the Table below represent the average value from three experimental determinations.
These IC50 values represent the average value from three experimental determinations.

Where [1] appears, read: average value from three experimental determinations, read-out: USP14 IC50.
Where [2] appears, read: average value from three experimental determinations, reported as potency bands, read-out: IC50 (USP14 inhibition).

Structures are written as SMILES. Where two headings read alike, the source gives them in different places.

Sequence of USP14 (P54578 whole entry): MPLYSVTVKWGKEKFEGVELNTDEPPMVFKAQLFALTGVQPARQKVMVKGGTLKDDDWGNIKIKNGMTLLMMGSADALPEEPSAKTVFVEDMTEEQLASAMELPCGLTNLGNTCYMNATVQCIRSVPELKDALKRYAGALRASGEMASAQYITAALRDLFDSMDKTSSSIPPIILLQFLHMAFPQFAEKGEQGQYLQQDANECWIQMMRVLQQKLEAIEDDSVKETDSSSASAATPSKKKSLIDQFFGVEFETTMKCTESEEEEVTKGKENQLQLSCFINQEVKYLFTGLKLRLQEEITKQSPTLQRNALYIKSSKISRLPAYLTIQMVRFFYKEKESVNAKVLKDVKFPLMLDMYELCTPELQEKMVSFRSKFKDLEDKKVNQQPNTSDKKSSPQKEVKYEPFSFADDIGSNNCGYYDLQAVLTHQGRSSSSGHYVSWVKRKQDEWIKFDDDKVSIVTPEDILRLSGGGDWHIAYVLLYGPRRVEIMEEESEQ
Sequence of USP14 (Q13200 whole entry partner): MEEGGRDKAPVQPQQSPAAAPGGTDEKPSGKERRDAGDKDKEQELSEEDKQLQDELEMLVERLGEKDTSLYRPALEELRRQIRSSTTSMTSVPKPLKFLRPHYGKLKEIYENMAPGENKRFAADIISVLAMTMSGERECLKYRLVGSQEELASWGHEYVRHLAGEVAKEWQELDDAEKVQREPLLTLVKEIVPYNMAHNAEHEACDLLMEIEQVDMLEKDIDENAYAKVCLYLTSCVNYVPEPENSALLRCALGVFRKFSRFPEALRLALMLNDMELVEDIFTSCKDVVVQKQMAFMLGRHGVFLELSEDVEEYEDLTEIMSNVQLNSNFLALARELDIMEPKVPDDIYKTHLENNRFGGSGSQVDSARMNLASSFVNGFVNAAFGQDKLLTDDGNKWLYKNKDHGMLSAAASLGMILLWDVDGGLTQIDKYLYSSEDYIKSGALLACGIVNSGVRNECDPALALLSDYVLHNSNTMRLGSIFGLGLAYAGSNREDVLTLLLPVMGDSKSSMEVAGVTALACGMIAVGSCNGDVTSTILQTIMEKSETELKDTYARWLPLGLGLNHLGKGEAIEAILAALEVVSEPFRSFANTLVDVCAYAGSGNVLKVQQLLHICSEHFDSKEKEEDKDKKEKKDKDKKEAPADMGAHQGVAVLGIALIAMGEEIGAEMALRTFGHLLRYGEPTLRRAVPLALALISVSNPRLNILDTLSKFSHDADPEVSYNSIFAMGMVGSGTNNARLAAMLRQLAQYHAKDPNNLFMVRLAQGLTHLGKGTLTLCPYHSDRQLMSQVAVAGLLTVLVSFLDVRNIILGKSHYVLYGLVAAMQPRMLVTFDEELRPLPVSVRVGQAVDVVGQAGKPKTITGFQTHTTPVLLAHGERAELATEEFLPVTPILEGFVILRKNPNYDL
Sequence of USP14 (P35998 whole entry partner): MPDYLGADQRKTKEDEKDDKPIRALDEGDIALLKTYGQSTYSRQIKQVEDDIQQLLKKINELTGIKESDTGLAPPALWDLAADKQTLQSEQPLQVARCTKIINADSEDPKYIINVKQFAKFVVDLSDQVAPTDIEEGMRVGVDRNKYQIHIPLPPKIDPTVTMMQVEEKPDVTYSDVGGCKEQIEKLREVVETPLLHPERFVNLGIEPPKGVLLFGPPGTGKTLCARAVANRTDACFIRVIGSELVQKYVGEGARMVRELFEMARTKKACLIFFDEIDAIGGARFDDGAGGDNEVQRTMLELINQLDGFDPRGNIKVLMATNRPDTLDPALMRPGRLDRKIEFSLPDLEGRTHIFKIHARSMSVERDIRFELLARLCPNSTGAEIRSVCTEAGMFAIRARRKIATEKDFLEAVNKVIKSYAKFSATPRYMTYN

In the case of `CNC(=O)Cc1nc(N(C)C2CC2)c2c3c(sc2n1)CCCC3` [Compound 1, 2-(4-(Cyclopropyl(methyl)amino)-5,6,7,8-tetrahydrobenzo[4,5]thieno[2,3-d]pyrimidin-2-yl)-N-methylacetamide], the IC50 (commonly the concentration that gives 50% inhibition) under setting [1] came to 1.1 µM.

For `CN(c1nc(CC(=O)O)nc2sc3c(c12)CCCC3)C1CC1` [Compound 2, 2-(4-(Cyclopropyl(methyl)amino)-5,6,7,8-tetrahydrobenzo[4,5]thieno[2,3-d]pyrimidin-2-yl)acetic acid], the IC50 under setting [1] worked out at 1.6 µM.

For `CN(C)C(=O)Cc1nc(N(C)C2CC2)c2c3c(sc2n1)CCCC3` [Compound 3, 2-(4-(Cyclopropyl(methyl)amino)-5,6,7,8-tetrahydrobenzo[4,5]thieno[2,3-d]pyrimidin-2-yl)-N,N-dimethylacetamide], the IC50 under setting [1] was 0.5 µM. With `COCc1nc(N(C)C2CC2)c2c3c(sc2n1)CCCC3` [Compound 4, Cyclopropyl-(2-methoxymethyl-5,6,7,8-tetrahydro-benzo[4,5]thieno[2,3-d]pyrimidin-4-yl)-methyl-amine], under setting [1], the IC50 was found to be 7.5 µM. `CN(c1nc(CC(N)=O)nc2sc3c(c12)CCCC3)C1CC1` [Compound 5, 2-(4-(Cyclopropyl(methyl)amino)-5,6,7,8-tetrahydrobenzo[4,5]thieno[2,3-d]pyrimidin-2-yl)acetamide]: the IC50 under setting [2] is below 1 µM. Same read-out and setting: then `CN(c1nc(CC(=O)N2CCCC2)nc2sc3c(c12)CCCC3)C1CC1` [Compound 6, 2-[4-(Cyclopropyl-methyl-amino)-5,6,7,8-tetrahydro-benzo[4,5]thieno[2,3-d]pyrimidin-2-yl]-1-pyrrolidin-1-yl-ethanone], with below 1 µM. Consider `CN(c1nc(CC(=O)N2CCC(F)(F)C2)nc2sc3c(c12)CCCC3)C1CC1` [Compound 7, 2-[4-(Cyclopropyl-methyl-amino)-5,6,7,8-tetrahydro-benzo[4,5]thieno[2,3-d]pyrimidin-2-yl]-1-(3,3-difluoro-pyrrolidin-1-yl)-ethanone], for which the IC50 under setting [2] lay within 1 to 5 µM. In the case of `CN(C)C1CCN(C(=O)Cc2nc(N(C)C3CC3)c3c4c(sc3n2)CCCC4)C1` (stereo not drawn) [Compound 8, 2-[4-(Cyclopropyl-methyl-amino)-5,6,7,8-tetrahydro-benzo[4,5]thieno[2,3-d]pyrimidin-2-yl]-1-(3-dimethylamino-pyrrolidin-1-yl)-ethanone], the IC50 under setting [2] was below 1 µM. On to `CN(c1nc(CC(=O)N2CCOCC2)nc2sc3c(c12)CCCC3)C1CC1` [Compound 9, 2-[4-(Cyclopropyl-methyl-amino)-5,6,7,8-tetrahydro-benzo[4,5]thieno[2,3-d]pyrimidin-2-yl]-1-morpholin-4-yl-ethanone], for which, under setting [2], the IC50 was below 1 µM.

As for `CN1CCN(C(=O)Cc2nc(N(C)C3CC3)c3c4c(sc3n2)CCCC4)CC1` [Compound 10, 2-[4-(Cyclopropyl-methyl-amino)-5,6,7,8-tetrahydro-benzo[4,5]thieno[2,3-d]pyrimidin-2-yl]-1-(4-methyl-piperazin-1-yl)-ethanone], under setting [2], the concentration for half-maximal inhibition (IC50) is below 1 µM. Same read-out and setting: then `CN(c1nc(CC(=O)N2CCC(F)(F)CC2)nc2sc3c(c12)CCCC3)C1CC1` [Compound 11, 2-[4-(Cyclopropyl-methyl-amino)-5,6,7,8-tetrahydro-benzo[4,5]thieno[2,3-d]pyrimidin-2-yl]-1-(4,4-difluoro-piperidin-1-yl)-ethanone], with 1 to 5 µM; and `CN(c1nc(CC(=O)N2CC(O)C2)nc2sc3c(c12)CCCC3)C1CC1` [Compound 12, 2-(4-(Cyclopropyl(methyl)amino)-5,6,7,8-tetrahydrobenzo[4,5]thieno[2,3-d]pyrimidin-2-yl)-1-(3-hydroxyazetidin-1-yl)ethanone], with below 1 µM; and `CC(=O)N1CCN(C(=O)Cc2nc(N(C)C3CC3)c3c4c(sc3n2)CCCC4)CC1` [Compound 13, 1-(4-Acetyl-piperazin-1-yl)-2-[4-(Cyclopropyl-methyl-amino)-5,6,7,8-tetrahydro-[1]benzothieno[2,3-d]pyrimidin-2-yl]-ethanone], with below 1 µM.

`CN(c1nc(CC(=O)N2CCC(=O)CC2)nc2sc3c(c12)CCCC3)C1CC1` [Compound 14, 1-{2-[4-(Cyclopropyl-methyl-amino)-5,6,7,8-tetrahydro-benzo[4,5]thieno[2,3-d]pyrimidin-2-yl]-acetyl}-piperidin-4-one] showed a 50% inhibitory concentration (IC50) below 1 µM. Turning to `CN(c1nc(CC(=O)N2CCC2)nc2sc3c(c12)CCCC3)C1CC1` [Compound 15, 1-(Azetidin-1-yl)-2-(4-(cyclopropyl(methyl)amino)-5,6,7,8-tetrahydrobenzo[4,5]thieno[2,3-d]pyrimidin-2-yl)ethanone], the IC50 under setting [2] is below 1 µM.

With `CN(c1nc(CC(=O)NCc2ccncc2)nc2sc3c(c12)CCCC3)C1CC1` [Compound 16], the IC50 under setting [2] fell in the range of 1 to 5 µM. On the same count and under the same terms, next, `CN(c1nc(CC(=O)NCCc2ccccn2)nc2sc3c(c12)CCCC3)C1CC1` [Compound 17]: 1 to 5 µM; `CN(c1nc(CC(=O)NCc2ccccn2)nc2sc3c(c12)CCCC3)C1CC1` [Compound 18]: 1 to 5 µM. The same measure, in the same setting: next, `CN(c1nc(CC(=O)NCc2cccnc2)nc2sc3c(c12)CCCC3)C1CC1` [Compound 19]: 1 to 5 µM; `CN(c1nc(CC(=O)N2CC[C@H](C(C)(C)O)C2)nc2sc3c(c12)CCCC3)C1CC1` [Compound 20, (S)-2-(4-(Cyclopropyl(methyl)amino)-5,6,7,8-tetrahydrobenzo[4,5]thieno[2,3-d]pyrimidin-2-yl)-1-(3-(2-hydroxypropan-2-yl)pyrrolidin-1-yl)ethanone]: below 1 µM; `CN(c1nc(CC(=O)Nc2ccon2)nc2sc3c(c12)CCCC3)C1CC1` [Compound 21]: 1 to 5 µM. On the same count and under the same terms, then `CN(c1nc(CC(=O)NCCc2ccncc2)nc2sc3c(c12)CCCC3)C1CC1` [Compound 22], with above 5 µM. `CN(c1nc(CC(=O)NCCc2cccnc2)nc2sc3c(c12)CCCC3)C1CC1` [Compound 23]: the IC50 under setting [2] was 1 to 5 µM. Still for that read-out and setting: then `CN(c1nc(CC(=O)N2CC[C@H](N(C)C)C2)nc2sc3c(c12)CCCC3)C1CC1` [Compound 24, 2-[4-(Cyclopropyl-methyl-amino)-5,6,7,8-tetrahydrobenzo[4,5]thieno[2,3-d]pyrimidin-2yl]-1-((S)-3-dimethylamino-pyrrolidin-1-yl)-ethanone], with below 1 µM; and `CN(c1nc(CC(=O)N2CCC(S(C)(=O)=O)C2)nc2sc3c(c12)CCCC3)C1CC1` (stereo not drawn) [Compound 25, 2-[4-(Cyclopropyl-methyl-amino)-5,6,7,8-tetrahydro-benzo[4,5]thieno[2,3-d]pyrimidin-2yl]-1-(3-methanesulfonyl-pyrrolidin-1-yl)-ethanone], with below 1 µM. On the same count and under the same terms, next, `CN(c1nc(CC(=O)N2CCCCC2)nc2sc3c(c12)CCCC3)C1CC1` [Compound 26, 2-[4-(Cyclopropyl-methyl-amino)-5,6,7,8-tetrahydro-benzo[4,5]thieno[2,3-d]pyrimidin-2yl]-1-piperidin-1-yl-ethanone]: 1 to 5 µM; `CN(c1nc(CC(=O)N2CCC(O)CC2)nc2sc3c(c12)CCCC3)C1CC1` [Compound 27, 2-[4-(Cyclopropyl-methyl-amino)-5,6,7,8-tetrahydro-benzo[4,5]thieno[2,3-d]pyrimidin-2-yl]-1-(4-hydroxy-piperidin-1-yl)-ethanone]: below 1 µM. On the same count and under the same terms, then `CC(C)NC(=O)Cc1nc(N(C)C2CC2)c2c3c(sc2n1)CCCC3` [Compound 28, 2-[4-(Cyclopropyl-methyl-amino)-5,6,7,8-tetrahydro-benzo[4,5]thieno[2,3-d]pyrimidin-2-yl]-N-isopropyl-acetamide], with 1 to 5 µM; and `CN(c1nc(CC(=O)N2CCC(O)C2)nc2sc3c(c12)CCCC3)C1CC1` (stereo not drawn) [Compound 29, 2-[4-(Cyclopropyl-methyl-amino)-5,6,7,8-tetrahydro-benzo[4,5]thieno[2,3-d]pyrimidin-2-yl]-1-(3-hydroxy-pyrrolidin-1-yl)-ethanone], with below 1 µM; and `CN(c1nc(CC(=O)N2CC[C@@H](N(C)C)C2)nc2sc3c(c12)CCCC3)C1CC1` [Compound 30, 2-[4-(Cyclopropyl-methyl-amino)-5,6,7,8-tetrahydro-benzo[4,5]thieno[2,3-d]pyrimidin-2-yl]-1-((R)-3-dimethylamino-pyrrolidin-1-yl)-ethanone], with below 1 µM.

For `CN(c1nc(CC(=O)N2CCC(C(N)=O)CC2)nc2sc3c(c12)CCCC3)C1CC1` [Compound 31, 1-{2-[4-(Cyclopropyl-methyl-amino)-5,6,7,8-tetrahydro-benzo[4,5]thieno[2,3-d]pyrimidin-2-yl]-acetyl}-piperidine-4-carboxylic acid amide], the 50% inhibitory concentration (IC50) under setting [2] was below 1 µM.

Turning to `CN(c1nc(CC(=O)N2CCC(N3CCOCC3)CC2)nc2sc3c(c12)CCCC3)C1CC1` [Compound 32, 2-[4-(Cyclopropyl-methyl-amino)-5,6,7,8-tetrahydro-benzo[4,5]thieno[2,3-d]pyrimidin-2-yl]-1-(4-morpholin-4-yl-piperidin-1-yl)-ethanone], the IC50 under setting [2] is below 1 µM. On the same count and under the same terms, next, `CN(c1nc(CC(=O)N2CCCC(O)C2)nc2sc3c(c12)CCCC3)C1CC1` (stereo not drawn) [Compound 33, 2-[4-(Cyclopropyl-methyl-amino)-5,6,7,8-tetrahydro-benzo[4,5]thieno[2,3-d]pyrimidin-2-yl]-1-(3-hydroxy-piperidin-1-yl)-ethanone]: below 1 µM; `CCNC(=O)Cc1nc(N(C)C2CC2)c2c3c(sc2n1)CCCC3` [Compound 34, 2-[4-(Cyclopropyl-methyl-amino)-5,67,8-tetrahydro-benzo[4,5]thieno[2,3-d]pyrimidin-2-yl]-N-ethyl-acetamide]: 1 to 5 µM. The same measure, in the same setting: next, `CN(c1nc(CC(=O)NCCC(C)(C)O)nc2sc3c(c12)CCCC3)C1CC1` [Compound 35, 2-[4-(Cyclopropyl-methyl-amino)-5,6,7,8-tetrahydro-benzo[4,5]thieno[2,3-d]pyrimidin-2-yl]-N-(3-hydroxy-3-methyl-butyl)-acetamide]: 1 to 5 µM; `CN(c1nc(CC(=O)N2CCC(CO)C2)nc2sc3c(c12)CCCC3)C1CC1` (stereo not drawn) [Compound 36, 2-[4-(Cyclopropyl-methyl-amino)-5,6,7,8-tetrahydro-benzo[4,5]thieno[2,3-d]pyrimidin-2-yl]-1-(3-hydroxymethyl-pyrrolidin-1-yl)-ethanone]: below 1 µM.
